# From the METLIN SMRT retention time set (Domingo-Almenara et al. 2019)
# Assay: gradient 5% acetonitrile 3 min, to 50% in 2 min, to 85% in 15 min, held 3 min, 100 µL/min
# Conditions: column: Zorbax Extend-C18 2.1 x 50 mm; eluents: water / acetonitrile, 0.1% formic acid
# How it was run: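 Retention times of pure standards were taken from adduct peaks that were selected by computer and manually inspected. Over 3 months, mixtures of ~100 molecules were run by HPLC–quadrupole time-of-flight mass spectrometry in positive and negative ionization mode. The Zorbax Extend-C18 column (2.1 × 50 mm, 1.8 μm) ran at 100 μL/min in water and acetonitrile, each containing 0.1% formic acid, with 40 μL dead volume and 900 μL dwell volume.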
row,RP-LC retention time [s],SMILES
1,674,O=c1[nH]c2ccc(NCc3ccc(-c4ccccc4)cc3)cc2[nH]1
2,1080,Cc1ccc2c(c1)N(Cc1cc(F)cc(F)c1)N=C(C(=O)N1CCC(C)CC1)S2(=O)=O
3,638,Cn1cc(CCNC(=O)c2cncc(Br)c2)c2cccnc21
4,1080,CCc1cccc(NC(=O)c2cn(CC)nc2S(=O)(=O)N2CCSCC2)c1
5,817,COc1cccc(N2CC(C(=O)Nc3nnc(-c4csc(C)n4)o3)CC2=O)c1 (configuration not stated)
6,647,COc1ccc(-c2nnc(CC(=O)N3CCOCC3)o2)cc1
7,871,Cc1nc(C(=O)NCc2cccc(Cl)c2)c(C)o1
8,623,COCCN1C(=O)[C@H]2CN(Cc3ccc(F)c(F)c3)C[C@H]2C1=O
9,1070,Cc1nc2c(sc3nc(-c4ccccc4)ccc32)c(=O)n1CC(=O)Nc1ccccc1C(F)(F)F
10,675,COc1ccc(-c2cc3c(=O)n(Cc4noc(CN5CCCC(C)C5)n4)ccn3n2)cc1 (configuration not stated)
11,776,O=C(COc1ccccc1)N1CCN(c2cc(-c3ccccc3)[nH]n2)CC1
12,1390,CCOc1nc2ccccc2nc1N1CCCC(C(=O)Nc2ccc(Br)cc2F)C1 (configuration not stated)
13,1320,CCc1ccc(-c2nc(-c3ccc4c(c3)N(CC)C(=O)CO4)no2)cc1
14,876,CC(=O)N1c2ccc(S(=O)(=O)N3CCCC3)cc2CC1C(=O)Nc1c(C)cc(C)cc1C (configuration not stated)
15,692,CCOc1ccc(Cl)cc1S(=O)(=O)N1CCC(C(=O)NCCO)CC1
16,1100,Cc1ccc(-c2nnc(Cc3nc(-c4ccccc4C)no3)o2)cc1
17,700,CC(NC(=O)CCc1c(-c2ccc(Cl)cc2)nc2ccccn12)c1ccccc1 (configuration not stated)
18,583,CCOc1ccc(CN2CCC3(CC2)CC(O)CCO3)cc1OC (configuration not stated)
19,997,CCCS(=O)(=O)N1CC(=O)N(c2ccccc2F)C(C)(C(=O)NC2CCCCCCC2)C1 (configuration not stated)
20,836,CCN1C(=O)c2cccnc2Sc2cc(NC(=O)c3ccc(OC)c(F)c3)ccc21
21,722,Cn1cnc(S(=O)(=O)NCCN2C(=O)C3(CCCCC3)C2c2ccccc2)c1 (configuration not stated)
22,819,CCN(c1ccccc1C)S(=O)(=O)c1cc(-c2[nH]ncc2C(=O)N2CCCC2)oc1C
23,584,NC(=O)C1CCN(c2ncnc3c2oc2ccccc23)CC1

row,RP-LC retention time [s],SMILES
1,973,CC1CCN(C(=O)C2c3ccccc3CCN2CC(=O)NCc2cccc(Cl)c2)CC1 (configuration not stated)
2,1160,COC(=O)c1cc(C2CC2)nc2c1c(=O)n(Cc1ccc(C)cc1)c(=O)n2C
3,1000,CCOc1ccc(OCC)c(N2C=C(C#N)S(=O)(=O)c3ccccc32)c1
4,718,Cc1cc(C(=O)NC(C)C)c2cc(Cl)ccc2n1
5,770,COc1ccc(CCNC(=O)C(=O)NCc2ccc(F)cc2)cc1OC
6,643,CCCN1C(=O)Cc2cc(C(=O)O)ccc21
7,701,Cc1nn(CC(=O)O)c(=O)c2nc(-c3ccccc3)sc12
8,855,CCOC(=O)c1cc(C2CC2)nc2c1c(=O)n(Cc1ccc(F)cc1Cl)c(=O)n2C
9,1100,O=C(Nc1ccc(F)c(F)c1)c1cccn1Cc1noc(-c2ccccc2)n1
10,791,CCOCCOC(=O)C1=C(C)NC2=C(C(=O)CC(C)(C)C2)C1c1cccc(OC)c1OC (configuration not stated)
11,792,O=C(NC1CCN(c2cc(-c3ccccc3)[nH]n2)C1)c1ccc2cc[nH]c2c1 (configuration not stated)
12,713,Cc1ccc(NS(=O)(=O)c2cc(-c3[nH]ncc3C(=O)N(C)C)oc2C)cc1F
13,761,C=CCNC(=O)N1CCCN(C2=NS(=O)(=O)C(c3ccc(Cl)cc3)=C2C)CC1
14,588,CO[C@H]1CN(C2CCN(Cc3ccc(C)o3)CC2)[C@H]1c1ccncc1
15,590,CN(C1CCC1)C1CCc2nn(Cc3ccccc3)c(=O)n2CC1 (configuration not stated)
16,1190,CCN1C(=O)c2ccccc2Oc2ccc(C(=O)N3CCN(c4cc(Cl)ccc4C)CC3)cc21
17,698,O=C(NCCc1ccsc1)C1CC(=O)N(c2ccc(F)cc2)C1 (configuration not stated)
18,1040,O=C(CN1C(=O)C(C(=O)N2CCCC2)Sc2ccccc21)Nc1ccc(F)c(F)c1 (configuration not stated)
19,969,Cc1noc(C)c1-c1ccc(S(=O)(=O)NCc2ccc(Cl)cc2)cc1
20,796,CCC(CC)C(=O)N(C)CCc1noc(-c2ccc(C(=O)N3CCCC3)cc2)n1
21,750,CCc1cccc(C)c1Nc1c(-c2cccc(O)c2)nc2cnccn12
22,858,CCOC(=O)Cn1c(C2CC(=O)N(c3ccc(Cl)cc3)C2)nc2ccccc21 (configuration not stated)
23,924,CCOc1ccc(-c2noc(CN3N=NC4C(=O)N(c5ccc(OC)cc5)C(=O)C43)n2)cc1OC (configuration not stated)

row,RP-LC retention time [s],SMILES
1,1010,Cc1nc(-c2csc(S(=O)(=O)N3CCCC(C(=O)Nc4ccc(F)cc4Cl)C3)c2)no1 (configuration not stated)
2,845,O=S(=O)(c1cccn2c(SCc3cc(F)cc(F)c3)nnc12)N1CCCC1
3,621,NC(=O)C1CCN(C(=O)CSc2nnnn2-c2ccccc2)CC1
4,862,CCOCCOC(=O)C1=C(C)NC2=C(C(=O)C(C(=O)OC)C(C)C2)C1c1ccccc1F (configuration not stated)
5,898,CCCN1C(=O)CN(S(=O)(=O)c2ccccc2)CC1(C)C(=O)NCc1ccc(C)cc1 (configuration not stated)
6,978,COc1ccc(-c2nc(-c3cccc(-c4ccn[nH]4)c3)no2)cc1F
7,844,CNC(=O)Nc1ccc(C2(C(=O)Nc3ccc4c(c3)CCC4)CCC2)cc1
8,676,COc1cccc(Nc2nnc(CC(=O)N3CCSCC3)s2)c1
9,1090,O=C(O)c1cc(-c2cccc3ccccc23)nc2ccc(Br)cc12
10,633,Cc1cc(N(C)C)n2nc(CN3CCN(c4ccccc4C)CC3)nc2n1
11,697,CC1=C(c2ccccc2)S(=O)(=O)N=C1N1CCCN(C(=O)c2ccccc2)CC1
12,718,CCOc1cc(=O)n2c(c1C(=O)Nc1cc(OC)cc(OC)c1)CCCC2
13,841,CC1(C(=O)N2CCCc3ccccc32)Cc2ccccc2C(=O)O1 (configuration not stated)
14,931,Cc1nnc(-c2c(S(=O)(=O)N3CCC(Cc4ccccc4)CC3)c(C)n(C)c2C)o1
15,695,Cc1cccn2c(NC(=O)c3cc4ccccc4oc3=O)c(-c3ccccc3)nc12
16,770,CCc1cc(=O)n(CC(=O)Nc2cccc(C)c2)c(N2CCOCC2)n1
17,718,O=C(Nc1ccc2nncn2c1)Nc1ccccc1Cl
18,662,O=C(NCCc1csc(C2CCCN(C(=O)C3CC3)C2)n1)C1CC1 (configuration not stated)
19,657,CCCNC(=O)C1CCCN(c2ccc(SCC(=O)Nc3ccc4c(c3)OCCO4)nn2)C1 (configuration not stated)
20,685,COc1cccc(NC(=O)N(C)CC2CCOCC2)c1
21,1120,COc1ccccc1-c1noc(-c2nc(-c3ccc4c(c3)OCO4)no2)n1
